Patent US11254986B2, “Gene signature for immune therapies in cancer” (ALMAC DIAGNOSTICS LIMITED, priority 2015, dated 2022)

Experiments:
[1] = tested on: CXCL10 and CCL5 chemokine production in MDA-MB-436 EV cells; assay: Chemokine expression after small molecule inhibitors of ATM, ATR and DNAPK; assay type: cell-based; settings: DDRD positive cells (MDA-MB-436 EV), compared to the DMSO control, FIG. 16
Description: (§1) The product of Reverse Transcription was diluted 1:10 in Nuclease Free Water (NFW). Each 10 μl PCR reaction, consisted of 0.5 μl of 10 μM Forward primer, 0.5 μl of 10 μM Reverse primer, 5 μl of 2× LightCycler® 480 SYBR Green I Master mix (Roche), 1.5 μl NFW and 2.5 μl diluted Reverse Transcription product. These 10 μl reactions were pipetted into wells of a LightCycler® 480 multiwell 96 plate (Roche), the plate was then sealed using clear adhesive film (Roche). The plate was placed into the LightCycler® 480 (Roche) and run with the following protocol. (95° C. for 10 mins, 45 cycles of; 95° C. for 15 secs, 55° C. for 30 secs and 72° C. for 30 secs, finishing with a melt curve for confirmation of primer specificity. All qPCR data was analysed using the LightCycler® 480 software provided by Roche. For analysis, the Cp value from a technical duplicate was calculated and the relative amount of a gene was calculated Cp value to an in-run standard curve. Each mean value was then normalised to the mean concentration of the housekeeping gene PUM1 within the corresponding sample, by dividing the concentration of the target gene by the concentration of the house keeping gene. Relative expression refers to the gene expression levels that have been normalised to the housekeeping gene and made relative to the associated control samples. From these normalized values, the fold changes for each gene were calculated and the average of three individual fold changes were derived from three independent experimental triplicates. The unpaired, two-tailed students T-test available on GraphPad Prism 5.0 software was used to detect statistical significance.
(§2) For analysis of effects of ATM, ATR and DNAPK on cytokine expression, cells were seeded in six well plates at ˜60% confluency. Following incubation overnight, small molecule inhibitors of ATM (Ku60019, Selleck Chem) at a dose of 1 μm, ATR (ETP46464, Selleck Chem) at a dose of 5 μm and DNAPK (Nu7441, Selleck Chem) at a dose of 5 μm were added. At 24 hours, RNA and protein samples were obtained for analysis. For analysis of the effects of DNA damaging agents and paclitaxel on cytokine expression, cells were seeded in six well plates at ˜60% confluency. Following incubation overnight, IC50 doses of Cisplatin and Paclitaxel (obtained from fresh Pharmacy stock) and Hydroxyurea (Sigma Aldrich) were added for 24 hours to 48 hours. At the appropriate timepoint, RNA and protein samples were obtained for analysis.

[2] = tested on: HCC1937 parental and HCC1937-BR cells; settings: HCC1937 BRCA1 mutant cell-line relative to BRCA1 corrected cell-line (HCC1937-BR); FIG. 8C
Description: The cell-lines were routinely maintained in RPMI-1640 medium supplemented with 50 U penicillin/ml, 50 μg streptomycin/ml, 2 mM glutamine, 1 mM Sodium Pyruvate and 20% (v/v) fetal bovine serum (FBS). The HCC1937-EV and HCC937-BR cell-lines also required 0.2 ml/mg geneticin. Cell-lines were cultured at 37° C. with a humidified atmosphere of 5% CO2.
Twenty-four hours following seeding the cells were exposed to medium containing increasing doses of drug. Cell medium was replenished every 4-5 days. After 12-14 days the cells were fixed in methanol, stained with crystal violet and counted. The percentage survival of control for a given dose was calculated as the plating efficiencies for that dose divided by the plating efficiencies of vehicle-treated cells. Survival curves and half maximal inhibitory concentration (IC50) values were calculated using GraphPad Prism.

[3] = tested on: PDL1; assay: PDL1 expression in RKO cells after Interferon-γ, qPCR and western blot; assay type: cell-based; settings: for PDL1 gene expression levels (fold change): RKO Par, RKO Fanc C and RKO Fanc G cells, FIG. 27B
Description: as §1, with “Relative expression refers to the gene expression levels that have been normalised to the housekeeping gene and made relative to the associated control samples.” left out, “The unpaired, two-tailed students T-test available on GraphPad Prism 5.0 software was used to detect statistical significance.” left out
Adherent cells formed whole cell lysates suspended in RIPA buffer containing phosphatase and protease inhibitors (Roche Inhibitor cocktails, Germany). […] Protein was quantified using the BCA Assay (Pierce, Rockford, Ill., USA) according to manufacturer's instructions using a plate reader. […] Results were then visualized and recorded using Luminata Crescendo Western HRP substrate (Millipore, UK) and an alpha imager.
The cytotoxic effects of lymphocytes on cancer cells was measured using LIVE/DEAD® Cell-Mediated Cytotoxicity Kit (Life technologies, Paisley, UK.) RKO parental and Fanc G cells were trypsinised, counted and stained with green-fluorescent membrane stain DiOC18 in PBS at a concentration of 2 μl of stain per ml. […]

[4] = tested on: CXCL10 and CCL5 expression; assay: qRT-PCR of chemokine expression after DNA damaging agents, paclitaxel or nocodazole; assay type: cell-based
Description: Reverse transcription was performed using the First Strand cDNA synthesis kit (Roche). 500 ng of RNA was reverse transcribed according to manufacturer's instructions. Exon-spanning qPCR primers were designed using Roche Universal Probe Library Assay Design Centre and were used at a concentration of 0.5 μM. The following primer sequences were used:
To preform absolute quantification from qPCR, we used a standard curve method. The efficiency of each primer set was derived from the standard curve using the following equation: E=10^(−1/slope)
as §1
as §2, with “Following incubation overnight, IC50 doses of Cisplatin and Paclitaxel (obtained from fresh Pharmacy stock) and Hydroxyurea (Sigma Aldrich) were added for 24 hours to 48 hours. At the appropriate timepoint, RNA and protein samples were obtained for analysis.” left out

[5] = tested on: HeLa, HCC1937 EV and MDA-MB-436 EV cells; assay: Cell cycle analysis (propidium iodide, flow cytometry); assay type: cell-based; settings: anti-mitotic agent treatment; FIG. 15
Description: as §2
Cells were trypsinised and fixed in 70% ethanol, incubated with RNase A and propidium iodide (P1) and analysed using a BD FACSCalibur™ (BD Biosciences, CA, USA). Data was analysed using Flow Jo software to perform cell cycle analysis.

[6] = tested on: cytosolic DNA in HeLa cells; assay: PicoGreen fluorescent staining of double-stranded DNA, confocal microscopy; assay type: cell-based; settings: IC50 doses, FIG. 19C
Text: We probed cytosolic fractions of DDRD positive cells MDA-436-EV and +BRCA1, and HCC1937-EV and +BRCA1 cells for the presence of Histone H3, and found Histone H3 protein expression was increased in the repair deficient lines (EV) (FIG. 19A, top panel of blots). […] PicoGreen fluorescent staining was used to detect double-stranded DNA (ds-DNA). […] This increase in cytosolic DNA was however not observed in response to treatment with Paclitaxel (HeLa+Paclitaxel IC50) (FIG. 19C).

[7] = tested on: RKO Parental and RKO FANCG-/- cells; assay: Lymphocyte (PBMC) mediated cytotoxicity, LIVE/DEAD Cell-Mediated Cytotoxicity Kit; assay type: cell-based; settings: pre-treatment of cancer cells, PBMC ratio 5:1, p-value<0.05, FIG. 27A
Description: The cytotoxic effects of lymphocytes on cancer cells was measured using LIVE/DEAD® Cell-Mediated Cytotoxicity Kit (Life technologies, Paisley, UK.) RKO parental and Fanc G cells were trypsinised, counted and stained with green-fluorescent membrane stain DiOC18 in PBS at a concentration of 2 μl of stain per ml. Cells were incubated with the stain for 20 minutes at 37° C. before being seeded into 12 well plates at a density of 1×10^5 cells per well and left to adhere overnight. The next day PMBCs were counted and added to RKO cell cultures at the ratios indicated. For 1:1 ratio 1×10^5 PBMCs were added, for 5:1 ratio 5×10^5 PBMCs were added. The co-cultures were incubated for 4 hours before cells were collected for analysis by flow cytometry. A BD FACSCalibur™ (BD Biosciences, CA, USA) was used for the analysis of samples and Flow Jo software was used for data analysis. Cells were treated with interferon-γ at a concentration of 20 ng/ml for 16 hours.

For O=c1cc(N2CCOCC2)oc2c(-c3cccc4c3sc3ccccc34)cccc12 [Nu7440], the “CXCL10 and CCL5 chemokine production / expression levels” value [1] was “No significant decreases” and the “CXCL10 and CCL5 chemokine production / expression levels” value ([1]; listed as DNAPKi) was “significantly increased”.

For O=C(c1cc(Cc2n[nH]c(=O)c3ccccc23)ccc1F)N1CCCNCC1 [KU0058948], the “sensitivity to PARP-1 inhibitor (clonogenic survival)” value [2] was “more sensitive”.

With “Interferon-γ: Interferon-γ, cells treated at 20 ng/ml for 16 hours” the “PDL1 protein level (western blotting)” value ([3]; RKO Par and RKO Fanc G cells, pre-treatment, FIG. 27C) was “enhanced PDL1 levels”, the “PDL1 gene expression levels (fold change)” value [3] was “significantly increases PDL1 gene expression levels” and the “PDL1 gene expression levels (fold change)” value ([3]; listed as IFN-γ) was “drives PDL-1 expression in DDRD+”.

For C[C@@H]1CN(CC(=O)Nc2ccc3c(c2)Cc2cccc(-c4cc(=O)cc(N5CCOCC5)o4)c2S3)C[C@H](C)O1 [Ku60019], the “CXCL10 and CCL5 chemokine production / expression levels” value [1] was “No significant decreases”.

In the case of CC(C)(C#N)c1ccc(N2C(=O)OCc3cnc4ccc(-c5cnc6ccccc6c5)cc4c32)cc1 [ETP-46464], the “CXCL10 and CCL5 chemokine production / expression levels” value [1] is reported as “No significant decreases”.

COC(=O)Nc1nc2ccc(C(=O)c3cccs3)cc2[nH]1 [Nocodazole] was tested, and the “mRNA expression of CXCL10” value ([4]; anti-mitotic agent treatment, FIG. 15A) was “reduced mRNA expression of CXCL10” and the cell cycle arrest [5] was “arrest in the M phase”.

With CC(=O)O[C@H]1C(=O)[C@@]2(C)[C@H]([C@H](OC(=O)c3ccccc3)[C@]3(O)C[C@H](OC(=O)[C@H](O)[C@@H](NC(=O)c4ccccc4)c4ccccc4)C(C)=C1C3(C)C)[C@]1(OC(C)=O)CO[C@@H]1C[C@@H]2O [Paclitaxel] the “CXCL10 and CCL5 relative expression” value ([4]; HeLa, HCC1937 EV and MDA-MB-436 EV cells, IC-50 doses, compared to DMSO control, FIG. 14) was “not significantly increased” and the “cytosolic DNA (PicoGreen, confocal microscopy)” value [6] was “not observed”.

B1: Interferon-γ: Interferon-γ, cells treated at 20 ng/ml for 16 hours (protein, UniProt P01579 24-161, looked up)
Interferon gamma: QDPYVKEAENLKKYFNAGHSDVADNGTLFLGILKNWKEESDRKIMQSQIVSFYFKLFKNFKDDQSIQKSVETIKEDMNVKFFNSNKKKRDDFEKLTNYSVTDLNVQRKAIHELIQVMAELSPAAKTGKRKRSQMLFRG
For B1, the “lymphocyte mediated cytotoxicity, differential between RKO FANCG-/- and RKO Parental cells” value [7] was “extends the differential cytotoxicity” and the “lymphocyte mediated cytotoxicity, differential between RKO FANCG-/- and RKO Parental cells” value ([7]; listed as IFN-γ) was “protects against PBMC mediated cytotoxicity”.
